Key:
[1] = molecular target: T1, angiotensin II receptor (angiotensin II-induced vasoconstriction in in vitro aortic rings) (Oryctolagus cuniculus, UniProt P34976); experiment: Inhibition of Angiotensin II Dose-Response in Rabbit Thoracic Aorta; format: cell-based, rabbit (New Zealand white); conditions: for Kb / pA2: rabbit thoracic aorta, negative logarithm of antagonist concentration causing 2-fold shift to the right of agonist potency; for Kb: read-out: pA2 (converted); for inhibition at 10 µM: read-out: % Inhib. @ 10 uM
T1 construct: thoracic aorta gently dissected free from the aortic root to the level of the diaphragm; from tissue; host or cells: rabbit (New Zealand white) thoracic aorta rings
T1 sequence (P34976 1-359): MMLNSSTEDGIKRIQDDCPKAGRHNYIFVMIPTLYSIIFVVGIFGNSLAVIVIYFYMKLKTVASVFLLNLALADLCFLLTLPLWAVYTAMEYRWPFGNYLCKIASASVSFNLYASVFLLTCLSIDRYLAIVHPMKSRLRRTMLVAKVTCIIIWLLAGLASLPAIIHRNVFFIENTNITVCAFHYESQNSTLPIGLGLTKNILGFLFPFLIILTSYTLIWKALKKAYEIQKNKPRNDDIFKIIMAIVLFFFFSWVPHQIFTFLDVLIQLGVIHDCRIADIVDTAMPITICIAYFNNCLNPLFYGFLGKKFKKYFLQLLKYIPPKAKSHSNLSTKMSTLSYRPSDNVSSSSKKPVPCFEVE
Source text: Inhibition of Angiotensin II Dose-Response in Rabbit Thoracic Aorta
Purpose: To identify competitive receptor antagonists of an angiotensin II-activity, 1 activity i.e., angiotensin II-induced vasoconstriction in in vitro aortic rings.
Procedure: 1.8 to 2.3 kg New Zealand white rabbits are sacrificed with an intravenous sodium pentobarbital overdose and the thoracic aorta gently dissected free from the aortic root to the level of the diaphragm, into ice cold Krebs bicarbonate buffer. The aorta is gently freed of clots and adventitia and cleanly cut with a scalpel into 5 mm segments. Each dng is suspended from a Gould isotonic force transducer in a tissue bath containing 15 mL oxygenated Krebs bicarbonate buffer regulated at 37° C. Initial tension is adjusted to 4.0 g and equilibrated over three 20-min wash periods to achieve a baseline tension of 3.0 g. Graded angiotensin II doses are given cumulatively to achieve a maximal contraction. Three 20-min washes are pedormed to remove the initial angiotensin II effect. The test compound is then given at a screening concentration of 1.0×10^-5 M. After observing any effects of the test compound alone, the angiotensin II cumulative dose-response is then repeated in the presence of the test compound.
Analysis: Angiotensin II vasoconstdctor tension in grams is expressed as a percent of maximal contraction for the before and after test compound angiotensin II dose-responses. Angiotensin II ED50 and ED90 is determined from the angiotensin II dose-response curves generated before and after test compound.
Controls: Test compounds are dissolved in DMSO vehicle and DMSO vehicle alone is tested in two rings as a vehicle control in each screening experiment.
pA2 is the negative logarithm of the antagonist concentration that causes a 2-fold shift to the right (i.e. decrease) in the potency of the agonist or the negative logarithm of the antagonist concentration that cuts the potency of the agonist in half.

angiotensin II receptor = experiment: Screening Potential Angiotensin II Receptor Antagonists in Salt-Depleted Normotensive Rats (blood pressure); format: in vivo, rat (Sprague-Dawley)
Method: Method; Male 350-450 g Sprague-Dawley rats are implanted with teflon microcannulae via the middle caudal artery under 20 mg/kg intravenous brevital anesthesia and permitted a 4-7 day surgical recovery period. Throughout recovery and testing animals are individually housed unrestrained in standard rat metabolism cages and receive continuous 0.5 ml/h intra-arterial 0.25N saline infusion through a spring-shielded swivelling tether connected to an infusion/blood pressure recording system to maintain arterial cannula patency. […] […] Three hours after the second furosemide dose, rats are given test compound uniformly suspended in 1% methylcellulose (n=3/dose level) or 1 mL 1% methylcellulose vehicle (n=3) orally by gavage and blood pressure is continuously recorded for 24 h using a Buxco computerized data recording system. Compound-induced changes in blood pressure are compared to concurrent vehicle control blood pressures in order to detect drug effect.
Interpretation: Prior to salt depletion, normotensive rats typically show a plasma renin activity (PRA, ng angiotensin I/mL plasma/h, RIA) of 0.7. After the salt-depletion protocol PRA values taken 3 h after the furosemide dose have risen to about 7.4.
Compounds that decrease blood pressure 10 or more mmHg (MAP) compared to concurrent control after oral dosing are considered active in this test. Maximum possible response is about -35 mmHg. […]

plasma renin activity = experiment: Plasma renin activity (PRA, RIA) in salt-depleted rats; format: in vivo, rat (Sprague-Dawley); conditions: after DuP-753 treatment of salt-depleted rats, 0.7 before and about 7.4 after salt depletion

Compound	Kb [1] [nM]	inhibition at 10 µM [1] [%]	further results
CCCCc1nc(SCc2ccc(-c3ccccc3C(=O)O)cc2)nn1Cc1ccc(-c2ccccc2C(=O)O)cc1 [Compound 2, Disodium 5-Butyl-1,3-bis-[4-(2'-carboxyphenyl)benzyl]mercapto-1,2,4-triazole]	3.24	100	
CC(C)Cc1nc(SCc2ccc(-c3ccccc3C(=O)O)cc2)nn1Cc1ccc(-c2ccccc2C(=O)O)cc1 [Compound 4, Sodium 5-isobutyl-1,3-bis-[4-(2'-carboxyphenyl)benzyl]mercapto-1,2,4-triazole]	32.4	100	
CCCCCc1nc(SCc2ccc(-c3ccccc3C(=O)O)cc2)nn1Cc1ccc(-c2ccccc2C(=O)O)cc1 [Compound 6, 5-Pentyl-1,3-bis-[4-(2'-carboxyphenyl)benzyl]mercapto-1,2,4-triazole]		100	pA2 [1]: 8.39
CCCCCCc1nc(SCc2ccc(-c3ccccc3C(=O)OC)cc2)nn1Cc1ccc(-c2ccccc2C(=O)OC)cc1 [Compound 8, 5-Hexyl-1,3-bis-[4-(2'-carbomethoxyphenyl)benzyl]mercapto-1,2,4-triazole]	11	100	
CCCCCCCc1nc(SCc2ccc(-c3ccccc3C(=O)OC)cc2)nn1Cc1ccc(-c2ccccc2C(=O)OC)cc1 [Compound 9, 5-Heptyl-1,3-bis-[4-(2'-carbomethoxyphenyl)benzyl]mercapto-1,2,4-triazole]		2	
CCCCCCCc1nc(SCc2ccc(-c3ccccc3C(=O)O)cc2)nn1Cc1ccc(-c2ccccc2C(=O)O)cc1 [Compound 10, 5-Heptyl-1,3-bis-[4-(2'-carboxyphenyl)benzyl]mercapto-1,2,4-triazole]	186	97	
CCCCCc1nc(SCc2ccc(-c3ccccc3C#N)cc2)nn1Cc1ccc(-c2ccccc2C(=O)O)cc1 [Compound 12]		79	
CCCCCc1nc(SCc2ccc(-c3ccccc3C(=O)OC)cc2)nn1Cc1ccc(-c2ccccc2-c2nn[nH]n2)cc1 [Compound 16, 3-[4-(2'-Carbomethoxyphenyl)benzyl]mercapto-5-pentyl-1-[4-(2'-tetrazolophenyl)benzyl]-1,2,4-triazole hemihydrate]	10000		
CCCCCc1nc(SCc2ccc(-c3ccccc3C(=O)OC)cc2)n(Cc2ccc(-c3ccccc3C(=O)OC)cc2)n1 [Compound 21, 5-Pentyl-2,3-bis-[4-(2'-carbomethoxyphenyl)benzyl]mercapto-1,2,4-triazole]		4	
CCCCCc1nc(SCc2ccc(-c3ccccc3C(=O)O)cc2)n(Cc2ccc(-c3ccccc3C(=O)O)cc2)n1 [Compound 23, 5-Pentyl-2,3-bis-[4-(2'-carboxyphenyl)benzyl]mercapto-1,2,4-triazole]		100	pA2 [1]: 7.19
CCCCCCCc1nc(SCc2ccc(-c3ccccc3C(=O)OC)cc2)n(Cc2ccc(-c3ccccc3C(=O)OC)cc2)n1 [Compound 25, 5-Heptyl-2,3-bis-[4-(2'-carbomethoxyphenyl)benzyl]mercapto-1,2,4-triazole]		1	
CCCCCCCc1nc(SCc2ccc(-c3ccccc3C(=O)O)cc2)n(Cc2ccc(-c3ccccc3C(=O)O)cc2)n1 [Compound 26]		48	pA2 [1]: 5.88
CCCCCCCCc1nc(S(=O)(=O)Cc2ccc(-c3ccccc3C(=O)O)cc2)nn1Cc1ccc(-c2ccccc2C(=O)O)cc1 [Compound 38, 1-[(2'-Carboxyphenyl)benzyl]-3-[(2'-carboxyphenyl)benzylsulfonyl]-5-octyl-1,2,4-triazole hydrate]	813	87	
CCCCCCCc1nc(S(=O)(=O)Cc2ccc(-c3ccccc3C(=O)O)cc2)nn1Cc1ccc(-c2ccccc2C(=O)O)cc1 [Compound 39, 1-[(2'-Carboxyphenyl)benzyl]-3-[(2'-carboxyphenyl)benzylsulfonyl]-5-heptyl-1,2,4-triazole hydrate]	324	89	
CCCCCCc1nc(S(=O)(=O)Cc2ccc(-c3ccccc3C(=O)O)cc2)nn1Cc1ccc(-c2ccccc2C(=O)O)cc1 [Compound 40, 1-[(2'-Carboxyphenyl)benzyl]-3-[(2'-carboxyphenyl)benzylsulfonyl]-5-hexyl-1,2,4-triazole 0.5 hydrate]	8.91	100	
CCCCc1nc(Cl)c(CO)n1Cc1ccc(-c2ccccc2-c2nn[nH]n2)cc1 [DuP-753]			blood pressure change (angiotensin II receptor; normotensive rats that have not been salt-depleted): does not change; blood pressure decrease (mean arterial pressure, MAP) (angiotensin II receptor; salt-depleted rats (furosemide, low sodium diet), typical response): about 35 mmHg; plasma renin activity (PRA) (plasma renin activity): about 41.4 ng angiotensin I/mL plasma/h

Reference: patent US5508419A, “Substituted triazoles as angiotensin II inhibitors” (Ortho Pharmaceutical Corporation, priority 1994, dated 1996)
